{"source": "patent US20250163088A1", "about": "“HALF-SANDWICH TRANSITION METAL COMPLEXES AND USES THEREOF” (DEBRECENI EGYETEM, priority 2021, published 2025)", "key": {"[1]": {"test_system": "A2780 human ovarian carcinoma cells", "test": "SRB proliferation assay (48 h) on A2780 cells", "type": "cell-based", "conditions": "for cytostatic properties in the screen (long-term SRB and short-term MTT assays): A2780 cells, 100 μM-0.0017 μM", "description": "The compounds were tested in an assay aiming to assess short term toxicity (methylthiazolyldiphenyl-tetrazolium bromide (MTT) reduction assay, 4 hours) and a long term cytostasis or cytotoxicity (sulphorhodamine B (SRB) proliferation assay, 48 hours) on A2780 human ovarian carcinoma cells.\n(§1) SRB accumulation assay assesses protein content in a sample and was used to assess cell proliferation. SRB accumulation assay was performed similarly to (Fodor et al., 2016) as follows. Cells were seeded in 96-well plates. The next day cells were treated with the compounds for 48 hours in the concentrations indicated in a cell incubator. At the end of treatment cells were fixed with 10% trichloroacetic acid (TCA). Fixed cells were stained with SRB (0.4 m/V % dissolved in 1% acetic acid) for 60 minutes. Fixed cells were washed in 1% acetic acid 3 times; acetic acid was removed and cells were left to dry. Protein-bound SRB was released by adding 100 μl 10 mM Tris base. Plates were measured in a plate photometer (Thermo Scientific Multiscan GO spectrophotometer, Waltham, MA, USA) at 540 nm. On each plate wells were designed to contain untreated cells. In calculations the readings for these wells was considered as 1 and all readings were expressed relative to these values.\nStatistical analysis was performed using 8.0.1 version of Graphpad Prism. Values were tested for normal distribution using the D'Agostino and Pearson normality test. When necessary, values were log normalized or were normalized using the Box-Cox normalization method (Box and Cox, 1964), as indicated in the figure captions."}, "[2]": {"test_system": "human primary skin fibroblasts", "test": "SRB proliferation assay (48 h) on primary fibroblasts", "type": "cell-based", "conditions": "for Fibroblast Hill slope / IC50: SRB 48 h, N/A = cannot be calculated/no effect; for IC50: read-out: Fibroblast IC50", "description": "(§2) […]. All compounds were tested on two ovarian cancer cell lines (A2780 and ID8) and on human primary skin fibroblasts (non-transformed, primary cells) in MTT and SRB assays. MTT assays were performed 4 hours post-treatment and indicated rapid toxicity of the compounds, while SRB assays were performed 2 days post-treatment and represent long term cytostasis or toxicity.\nas §1\n(§3) Statistical analysis was performed using 8.0.1 version of Graphpad Prism. Values were tested for normal distribution using the D'Agostino and Pearson normality test. When necessary, values were log normalized or were normalized using the Box-Cox normalization method (Box and Cox, 1964), as indicated in the figure captions. Nonlinear regression was performed using the built-in “[Inhibitor] vs. response—Variable slope (four parameters), least square fit” utility of Graphpad that yielded IC50 and Hill slope values."}, "[3]": {"test": "Solubility / precipitation in the test medium", "type": "physicochemical"}, "ID8 ovarian cancer cells": {"test_system": "ID8 ovarian cancer cells", "test": "SRB proliferation assay (48 h) on ID8 cells", "type": "cell-based", "conditions": "SRB 48 h; for IC50: N/A = cannot be calculated/no effect", "description": "as §2, §1, §3"}, "[4]": {"test_system": "cisplatin-resistant A2780 cell line", "test": "SRB proliferation assay (48 h) on cisplatin-resistant A2780 cells", "type": "cell-based, human", "description": "In this experiment, 6×10^3 cisplatin-resistant A2780 cells were plated to 96 well plates. Cells were treated with the compounds in the concentrations indicated for either 4 hours for an MTT assay or for 48 hours for an SRB assay. Data is represented as average ±SD, from three biological replicates; individual assays were performed in duplicates. Values were normalized for vehicle treated cells, absorbance for vehicle treated cells equals to 1. Each compound was assessed individually. Normality was assessed using the Shapiro-Wilk test. […] Statistical significance was assessed using One-way ANOVA test comparing all points to the smallest concentration. Nonlinear regression was performed on the results of the SRB assay datasets.\nCisplatin resistant cells underwent selection (1 μM cisplatin) once a week for 3 days before plating for any assay.\nas §1"}, "[5]": {"conditions": "SRB 48 h, nonlinear regression, N/A = cannot be calculated/no effect, read-out: A2780 IC50"}}, "note": "Read-outs that look alike come from different tables or passages of the source."}
{"compound": "2-(2′,3′,4′,6′-Tetra-O-benzoyl-β-D-glucopyranosyl)-5-(pyridin-2-yl)-1,3,4-oxadiazole [Complex L-4]", "values": [{"measurement": "A2780 SRB Max. (maximal inhibition)", "setting": "[1]; 48 h", "value": 26.9, "unit": "%"}]}
{"compound": "O=C(OC[C@H]1O[C@@H](n2cc(-c3ccccn3)nn2)[C@H](OC(=O)c2ccccc2)[C@@H](OC(=O)c2ccccc2)[C@@H]1OC(=O)c1ccccc1)c1ccccc1", "note": "[Complex L-2a, 1-(2′,3′,4′,6′-Tetra-O-benzoyl-β-D-glucopyranosyl)-4-(pyridin-2-yl)-1,2,3-triazole]", "values": [{"measurement": "cytostatic effect in long-term SRB assays on A2780 and ID8 cells, in words", "setting": "[1]; 48 h", "value": "none of the corresponding ligands (L-2a, L-4, L-6, L-8) had cytostatic properties"}, {"measurement": "cytostatic properties in the screen (long-term SRB and short-term MTT assays)", "setting": "[1]", "value": "no biological activity"}, {"measurement": "effect on primary human fibroblasts (SRB), in words", "setting": "[2]", "value": "no effect"}]}
{"compound": "O=C(OC[C@H]1O[C@@H](n2cc(-c3ccc4ccccc4n3)nn2)[C@H](OC(=O)c2ccccc2)[C@@H](OC(=O)c2ccccc2)[C@@H]1OC(=O)c1ccccc1)c1ccccc1", "note": "[Complex L-2b, 1-(2′,3′,4′,6′-Tetra-O-benzoyl-β-D-glucopyranosyl)-4-(quinolin-2-yl)-1,2,3-triazole]", "values": [{"measurement": "cytostatic effect in long-term SRB assays on A2780 and ID8 cells, in words", "setting": "[1]; 48 h", "value": "only little cytostatic activity"}]}
{"compound": "O=C(OC[C@H]1O[C@@H](c2nnc(-c3ccccn3)o2)[C@H](OC(=O)c2ccccc2)[C@@H](OC(=O)c2ccccc2)[C@@H]1OC(=O)c1ccccc1)c1ccccc1", "note": "[Complex L-4, 2-(2′,3′,4′,6′-Tetra-O-benzoyl-β-D-glucopyranosyl)-5-(pyridin-2-yl)-1,3,4-oxadiazole]", "values": [{"measurement": "cytostatic effect in long-term SRB assays on A2780 and ID8 cells, in words", "setting": "[1]; 48 h", "value": "none of the corresponding ligands (L-2a, L-4, L-6, L-8) had cytostatic properties"}, {"measurement": "cytostatic properties in the screen (long-term SRB and short-term MTT assays)", "setting": "[1]", "value": "no biological activity"}, {"measurement": "effect on primary human fibroblasts (SRB), in words", "setting": "[2]", "value": "no effect"}]}
{"compound": "CC(=O)OC[C@H]1O[C@@H](c2nnc(-c3ccccn3)o2)[C@H](OC(C)=O)[C@@H](OC(C)=O)[C@@H]1OC(C)=O", "note": "[Complex L-5, 2-(2′,3′,4′,6′-Tetra-O-acetyl-β-D-glucopyranosyl)-5-(pyridin-2-yl)-1,3,4-oxadiazole]", "values": [{"measurement": "A2780 SRB Max. (maximal inhibition)", "setting": "[1]; 48 h", "value": 28.5, "unit": "%"}]}
{"compound": "O=C(O[C@@H]1[C@@H](OC(=O)c2ccccc2)[C@H](c2nnc(-c3ccccn3)o2)OC[C@H]1OC(=O)c1ccccc1)c1ccccc1", "note": "[Complex L-6, 2-(2′,3′,4′-Tri-O-benzoyl-β-D-xylopyranosyl)-5-(pyridin-2-yl)-1,3,4-oxadiazole]", "values": [{"measurement": "cytostatic effect in long-term SRB assays on A2780 and ID8 cells, in words", "setting": "[1]; 48 h", "value": "none of the corresponding ligands (L-2a, L-4, L-6, L-8) had cytostatic properties"}, {"measurement": "cytostatic properties in the screen (long-term SRB and short-term MTT assays)", "setting": "[1]", "value": "no biological activity"}, {"measurement": "effect on primary human fibroblasts (SRB), in words", "setting": "[2]", "value": "no effect"}, {"measurement": "solubility of the free ligand for testing", "setting": "[3]", "value": "insoluble"}]}
{"compound": "O=C(OC[C@H]1O[C@@H](c2nnc(-c3ccccn3)o2)[C@H](OC(=O)c2ccccc2)[C@@H](OC(=O)c2ccccc2)[C@H]1OC(=O)c1ccccc1)c1ccccc1", "note": "[Complex L-8, 2-(2′,3′,4′,6′-Tetra-O-benzoyl-β-D-galactopyranosyl)-5-(pyridin-2-yl)-1,3,4-oxadiazole]", "values": [{"measurement": "cytostatic effect in long-term SRB assays on A2780 and ID8 cells, in words", "setting": "[1]; 48 h", "value": "none of the corresponding ligands (L-2a, L-4, L-6, L-8) had cytostatic properties"}, {"measurement": "cytostatic properties in the screen (long-term SRB and short-term MTT assays)", "setting": "[1]", "value": "no biological activity"}, {"measurement": "effect on primary human fibroblasts (SRB), in words", "setting": "[2]", "value": "no effect"}]}
{"compound": "c1ccc(-n2cc(-c3ccccn3)nn2)cc1", "note": "[Complex L-13, 1-phenyl-4-(pyridine-2-yl)-1,2,3-triazole]", "values": [{"measurement": "cytostatic activity on A2780 cells in SRB assays, in words", "setting": "[1]; 48 h", "value": "None of the free ligands, L-13 or L-14 had cytostatic activity"}]}
{"compound": "c1ccc(-c2nnc(-c3ccccn3)o2)cc1", "note": "[Complex L-14, 2-phenyl-5-(pyridine-2-yl)-1,3,4-oxadiazole]", "values": [{"measurement": "cytostatic activity on A2780 cells in SRB assays, in words", "setting": "[1]; 48 h", "value": "None of the free ligands, L-13 or L-14 had cytostatic activity"}]}
{"compound": "CCCCCCCC(=O)OC[C@H]1O[C@@H](n2cc(-c3ccccn3)nn2)[C@H](OC(=O)CCCCCCC)[C@@H](OC(=O)CCCCCCC)[C@@H]1OC(=O)CCCCCCC", "note": "[L-C7, 1-(2′,3′,4′,6′-Tetra-O-octanoyl-β-D-glucopyranosyl)-4-(pyridin-2-yl)-1,2,3-triazole]", "values": [{"measurement": "solubility of the free ligand for testing", "setting": "[3]", "value": "insoluble"}]}
{"compound": "CNCc1ccc(-c2[nH]c3cc(F)cc4c3c2CCNC4=O)cc1", "note": "[Rucaparib, rucaparib]", "values": [{"measurement": "cell proliferation, rucaparib alone", "setting": "[1]; 3 μM, SRB 48 h", "value": "reduced cell proliferation"}]}
{"compound": "[NH2][Pt]1([NH2])[O]C(=O)C2(CCC2)C(=O)[O]1", "note": "[carboplatin]", "values": [{"measurement": "effect on primary human fibroblasts (SRB), in words", "setting": "[2]; 48 h", "value": "no effect"}]}
{"compound": "N.N.[Cl][Pt][Cl]", "note": "[cisplatin]", "values": [{"measurement": "A2780 SRB Hill", "setting": "[1]; 48 h", "value": 1.20}, {"measurement": "IC50", "setting": "[1]; 48 h, read-out: A2780 SRB IC50", "value": 1210, "unit": "nM"}, {"measurement": "A2780 Hill slope", "setting": "[1]; SRB 48 h, nonlinear regression", "value": 1.20}, {"measurement": "IC50", "setting": "[1]; [5]", "value": 1210, "unit": "nM"}, {"measurement": "IC50", "setting": "[1]; SRB assay, 48 h, read-out: IC50 value on (cisplatin-sensitive) A2780 cells", "value": 1210, "unit": "nM"}, {"measurement": "ID8 Hill slope", "setting": "ID8 ovarian cancer cells", "value": 0.99}, {"measurement": "IC50", "setting": "ID8 ovarian cancer cells", "value": 10800, "unit": "nM"}, {"measurement": "Fibroblast Hill slope", "setting": "[2]", "value": 1.53}, {"measurement": "IC50", "setting": "[2]", "value": 11900, "unit": "nM"}, {"measurement": "cisplatin resistant A2780 SRB Max. (maximal inhibition)", "setting": "[4]; 48 h", "value": 100, "unit": "%"}, {"measurement": "fold change of IC50, cisplatin resistant vs. cisplatin sensitive A2780", "setting": "[4]; SRB assay", "value": 13.6, "unit": "fold"}, {"measurement": "IC50", "setting": "[4]; SRB assay, 48 h", "value": 16500, "unit": "nM"}]}
{"compound": "O=C1[O][Pt]2([NH][C@@H]3CCCC[C@H]3[NH]2)[O]C1=O", "note": "[oxaliplatin]", "values": [{"measurement": "A2780 Hill slope", "setting": "[1]; SRB 48 h, nonlinear regression", "value": 1.27}, {"measurement": "IC50", "setting": "[1]; [5]", "value": 120, "unit": "nM"}, {"measurement": "ID8 Hill slope", "setting": "ID8 ovarian cancer cells", "value": 1.58}, {"measurement": "IC50", "setting": "ID8 ovarian cancer cells", "value": 4590, "unit": "nM"}, {"measurement": "effect on primary human fibroblasts (SRB), in words", "setting": "[2]; 48 h", "value": "no effect"}, {"measurement": "Fibroblast Hill slope", "setting": "[2]", "value": 0.37}, {"measurement": "IC50", "setting": "[2]", "value": 830, "unit": "nM"}]}
